What was measured:
[1] = test system: Raji cells; assay: In vitro cytotoxicity (potency) against Raji cells, WST-8 cell viability assay; type: cell-based; conditions: Homo sapiens, 120 h, read-out: IC50 values towards Raji cells
Protocol: In Vitro Potency Measurement Against Raji Cells in 37° C., 5 Day Incubation
(§1) General Procedure Used: Samples of unconjugated free drug compounds or drug conjugates were added to 96-well flat bottomed tissue culture plates and titrated using serial dilutions to cover the desired molar range. Antigen positive (Ag^+) or Antigen negative (Ag^−) cells were added to the wells in specific cell densities (1000˜10000 cells/wall) in such a way that there were triplicate samples for each drug concentration for each corresponding cell line. All other cell lines were grown in RPMI-1640 (catalog no. 11875-085, Invitrogen), supplemented with 10% fetal bovine serum and gentamycin. The plates were then incubated at 37° C. in an atmosphere of 5% CO2 for 5 days. At the end of the incubation period cytotoxic potencies were then assessed using a WST-8 based cell viability assay and surviving cells were measured by developing with WST-8 (2-7 hours). The absorbance in each well was measured and the surviving fraction of cells at each concentration was plotted to reveal the cytotoxicity and/or antigen specificity (of the conjugates). The potency and specificity of the antibody-drug conjugates were measured against antigen-expressing cells, with and without the additions of an excess amount of blocking unconjugated antibody to show specificity of the killing effect.

[2] = test system: Ramos cells; assay: In vitro cytotoxicity (potency) against Ramos cells, WST-8 cell viability assay; type: cell-based; conditions: Homo sapiens, 120 h, read-out: IC50, in vitro potency against Ramos cells
Protocol: In Vitro Potency Measurement Against Ramos Cells in 37° C., 5 Day Incubation
as §1

## C=C1C[C@H]2C=Nc3cc(OCCP(=O)(CCOc4cc5c(cc4OC)C(=O)N4CC(=C)C[C@H]4C=N5)CCSSC)c(OC)cc3C(=O)N2C1 [Example 39]
[1]
  IC50: 0.005 to 0.011 nM

## COc1cc2c(cc1OCP(=O)(COc1cc3c(cc1OC)C(=O)C1C[C@@H](F)C[C@H]1C=N3)NCCCSSc1ccccn1)N=C[C@@H]1C[C@H](F)CC1C2=O (some centres unmarked) [Example 68]
[2]
  IC50: 0.1 to 0.5 nM
